Data on 4 substances can be found in publication PMC9227578, “Insight into the Molecular Mechanism for the Discrepant Inhibition of Microcystins (MCLR, LA, LF, LW, LY) on Protein Phosphatase 2A” (Toxins, 2022).

The test system of the test is PP2A. Nature of the test: colorimetric protein phosphatase (PP2A) inhibition assay. The test is classed as biochemical. The procedure:
The biological toxicity of the typical MCs was evaluated by a colorimetric protein phosphatase inhibition assay modified by Zong et al.. First, PP2A was diluted to 5 U/mL with a buffer solution (50 mM Tris-HCl pH 7.4, 2.0 mM dithiothreitol, 1 mM MnCl2) and 1.0 g/L bovine serum albumin. Then, 10 μL of PP2A and 100 μL of test samples were mixed in a 96-well polystyrene microplate. With gentle shaking, the microtiter plates were kept at 25.0 °C for 15 min, and 90 μL p-nitrophenyl disodium orthophosphate (5 mM) was added. After 1 h, the absorbances at 405 nm were measured in a microplate reader. The inhibition of the test samples on PP2A was calculated by the formula of IPP2A (%) = (Acontrol − Asample)/Acontrol × 100%. Acontrol and Asample were the absorbance of the reference sample ([…]) and the test sample at 405 nm, respectively.

MCLA: the “inhibition sequence on PP2A” value is recorded as “MCLR > MCLW > MCLA > MCLF > MCLY”. Still for that read-out and setting: under MCLF stands “MCLR > MCLW > MCLA > MCLF > MCLY”. Consider MCLR, for which the “inhibition effect on PP2A” value is on record as “much higher inhibition effect than other MCs” and the “inhibition sequence on PP2A” value is “MCLR > MCLW > MCLA > MCLF > MCLY”. Consider MCLY, for which the “inhibition effect on PP2A” value was “lower inhibition” and the “inhibition sequence on PP2A” value was “MCLR > MCLW > MCLA > MCLF > MCLY”.
